Measurements reported in ChEMBL document CHEMBL3588800, “Novel Bioactive Hybrid Compound Dual Targeting Estrogen Receptor and Histone Deacetylase for the Treatment of Breast Cancer” (J Med Chem, 2015).

Columns and labels:
[1] = target: T1, Estrogen receptor (Homo sapiens) (UniProt P03372); experiment: Antagonist activity at ER-alpha (unknown origin) transfected in HEK293T cells assessed as inhibition of transcriptional activity after 24 hrs by luciferase reporter gene assay relative to 17-beta estradiol; assay type: cell-based; conditions: HEK-293T
T1 sequence (whole entry): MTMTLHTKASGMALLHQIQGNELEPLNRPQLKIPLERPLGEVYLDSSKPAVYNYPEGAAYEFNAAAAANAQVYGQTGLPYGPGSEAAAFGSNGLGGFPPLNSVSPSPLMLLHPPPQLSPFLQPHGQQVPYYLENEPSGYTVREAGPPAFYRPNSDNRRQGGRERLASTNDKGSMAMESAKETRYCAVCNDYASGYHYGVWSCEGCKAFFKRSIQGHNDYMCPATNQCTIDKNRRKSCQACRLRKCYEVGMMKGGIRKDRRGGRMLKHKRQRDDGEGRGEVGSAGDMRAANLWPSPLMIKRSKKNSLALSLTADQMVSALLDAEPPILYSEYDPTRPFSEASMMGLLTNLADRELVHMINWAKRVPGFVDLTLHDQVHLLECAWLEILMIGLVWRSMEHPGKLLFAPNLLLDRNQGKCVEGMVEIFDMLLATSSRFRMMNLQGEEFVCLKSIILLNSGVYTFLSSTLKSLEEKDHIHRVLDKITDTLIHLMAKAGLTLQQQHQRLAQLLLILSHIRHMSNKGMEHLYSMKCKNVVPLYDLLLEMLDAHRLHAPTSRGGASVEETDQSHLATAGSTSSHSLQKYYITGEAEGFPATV

MCF7 = experiment: cells; assay type: functional, cell-based; conditions: Homo sapiens, MCF7, 72 h
DU-145 = experiment: cells; assay type: functional, cell-based; conditions: Homo sapiens, DU-145, 72 h
Vero = experiment: cells; assay type: ADME, cell-based; conditions: Chlorocebus sabaeus, 72 h
Estrogen receptor beta [2] = target: T2, Estrogen receptor beta (Homo sapiens, UniProt Q92731); experiment: Antagonist activity at ER-beta (unknown origin) transfected in HEK293T cells assessed as inhibition of transcriptional activity after 24 hrs by luciferase reporter gene assay relative to 17-beta estradiol; assay type: cell-based; conditions: HEK-293T
Estrogen receptor beta [3] = target: T2, Estrogen receptor beta; experiment: Agonist activity at ER-beta (unknown origin) transfected in HEK293T cells assessed as stimulation of transcriptional activity after 24 hrs by luciferase reporter gene assay relative to 17-beta estradiol; assay type: cell-based; conditions: HEK-293T
[4] = target: T1, Estrogen receptor (Homo sapiens); experiment: Agonist activity at ER-alpha (unknown origin) transfected in HEK293T cells assessed as stimulation of transcriptional activity after 24 hrs by luciferase reporter gene assay relative to 17-beta estradiol; assay type: cell-based; conditions: HEK-293T
Estrogen receptor beta [5] = target: T2, Estrogen receptor beta; experiment: Agonist activity at ER-beta (unknown origin) transfected in HEK293T cells assessed as stimulation of transcriptional activity after 24 hrs by luciferase reporter gene assay; assay type: cell-based, HEK-293T
Estrogen receptor [6] = target: T3, Estrogen receptor (Homo sapiens, UniProt P03372); experiment: Binding affinity to human ER-alpha ligand binding domain after 2 hrs by competitive fluorometric binding assay
T3 sequence (P03372 whole entry): T1 sequence (whole entry)

Estrogen receptor [7] = target: T3, Estrogen receptor; experiment: Antagonist activity at ER-alpha (unknown origin) transfected in HEK293T cells assessed as inhibition of transcriptional activity after 24 hrs by luciferase reporter gene assay; assay type: cell-based, HEK-293T
Estrogen receptor beta [8] = target: T2, Estrogen receptor beta; experiment: Binding affinity to human ER-beta ligand binding domain after 2 hrs by competitive fluorometric binding assay
Histone deacetylase 1 = Histone deacetylase 1 (Homo sapiens, UniProt Q13547); experiment: Inhibition of human recombinant HDAC1 after 15 mins by fluorogenic assay
[9] = target: T4, Protein deacetylase HDAC6 (Homo sapiens, UniProt Q9UBN7); experiment: Inhibition of human recombinant HDAC6 after 15 mins by fluorogenic assay
T4 sequence (Q9UBN7 whole entry): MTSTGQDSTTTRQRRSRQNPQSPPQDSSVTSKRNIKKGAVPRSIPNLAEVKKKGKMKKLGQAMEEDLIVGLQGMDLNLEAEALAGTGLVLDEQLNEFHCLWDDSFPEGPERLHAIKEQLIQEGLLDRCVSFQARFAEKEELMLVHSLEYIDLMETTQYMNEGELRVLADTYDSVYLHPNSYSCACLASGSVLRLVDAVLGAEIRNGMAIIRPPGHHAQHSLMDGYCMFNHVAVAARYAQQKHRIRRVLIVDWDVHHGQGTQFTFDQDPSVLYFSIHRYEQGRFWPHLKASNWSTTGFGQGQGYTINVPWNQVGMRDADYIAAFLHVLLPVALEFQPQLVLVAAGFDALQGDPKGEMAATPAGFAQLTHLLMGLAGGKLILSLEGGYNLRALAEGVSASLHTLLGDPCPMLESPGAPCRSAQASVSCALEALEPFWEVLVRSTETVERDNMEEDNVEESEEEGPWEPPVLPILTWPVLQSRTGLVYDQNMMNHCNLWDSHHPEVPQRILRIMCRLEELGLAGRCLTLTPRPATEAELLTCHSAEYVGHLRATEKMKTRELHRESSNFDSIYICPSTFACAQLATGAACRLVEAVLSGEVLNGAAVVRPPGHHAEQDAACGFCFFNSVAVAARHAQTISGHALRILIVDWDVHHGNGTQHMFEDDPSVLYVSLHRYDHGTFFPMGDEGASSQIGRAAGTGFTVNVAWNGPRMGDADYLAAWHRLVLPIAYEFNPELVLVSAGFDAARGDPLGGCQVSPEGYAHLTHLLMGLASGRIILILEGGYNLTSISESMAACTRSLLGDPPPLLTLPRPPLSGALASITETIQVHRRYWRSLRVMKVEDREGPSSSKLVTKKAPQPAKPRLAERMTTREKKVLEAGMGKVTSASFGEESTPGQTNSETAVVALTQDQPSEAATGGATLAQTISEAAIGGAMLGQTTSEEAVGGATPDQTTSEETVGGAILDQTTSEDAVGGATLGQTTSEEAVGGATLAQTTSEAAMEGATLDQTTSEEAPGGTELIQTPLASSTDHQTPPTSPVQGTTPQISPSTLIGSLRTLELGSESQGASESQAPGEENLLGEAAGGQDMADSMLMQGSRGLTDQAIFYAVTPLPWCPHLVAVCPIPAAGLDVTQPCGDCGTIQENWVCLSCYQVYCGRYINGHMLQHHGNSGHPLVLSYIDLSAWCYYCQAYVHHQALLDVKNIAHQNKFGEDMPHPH

Sequence of Histone deacetylase 1 (Q13547 whole entry): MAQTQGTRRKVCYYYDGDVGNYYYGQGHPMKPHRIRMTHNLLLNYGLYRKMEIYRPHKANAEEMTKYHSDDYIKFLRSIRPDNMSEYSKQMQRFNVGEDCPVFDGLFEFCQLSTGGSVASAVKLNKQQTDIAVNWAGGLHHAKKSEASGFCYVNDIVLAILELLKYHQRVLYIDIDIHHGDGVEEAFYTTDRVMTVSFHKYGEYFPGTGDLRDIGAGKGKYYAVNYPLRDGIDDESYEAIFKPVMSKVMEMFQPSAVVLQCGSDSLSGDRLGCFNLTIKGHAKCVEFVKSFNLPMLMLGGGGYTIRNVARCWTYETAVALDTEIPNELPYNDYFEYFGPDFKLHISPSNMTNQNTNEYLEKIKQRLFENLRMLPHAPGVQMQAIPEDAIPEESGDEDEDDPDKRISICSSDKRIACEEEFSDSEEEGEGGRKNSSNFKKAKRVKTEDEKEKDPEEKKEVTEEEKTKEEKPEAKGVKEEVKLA
T2 sequence (Q92731 whole entry): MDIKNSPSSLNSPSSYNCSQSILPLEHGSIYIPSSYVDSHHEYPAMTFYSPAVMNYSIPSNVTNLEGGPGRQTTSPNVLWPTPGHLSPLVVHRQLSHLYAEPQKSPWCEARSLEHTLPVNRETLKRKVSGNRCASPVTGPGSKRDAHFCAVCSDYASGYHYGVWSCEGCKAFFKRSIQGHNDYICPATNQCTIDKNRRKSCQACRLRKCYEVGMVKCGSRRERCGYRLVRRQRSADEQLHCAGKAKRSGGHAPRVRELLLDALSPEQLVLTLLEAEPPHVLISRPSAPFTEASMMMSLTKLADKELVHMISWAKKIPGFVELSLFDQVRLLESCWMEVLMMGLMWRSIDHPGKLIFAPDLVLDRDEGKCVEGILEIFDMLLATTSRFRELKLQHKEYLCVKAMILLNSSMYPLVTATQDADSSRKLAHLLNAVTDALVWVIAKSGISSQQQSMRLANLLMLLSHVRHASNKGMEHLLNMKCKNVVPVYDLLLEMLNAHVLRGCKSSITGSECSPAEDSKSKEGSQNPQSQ

SMILES | Efficacy [1] [%] | IC50 (MCF7) [µM] | IC50 (DU-145) [µM] | Efficacy (Estrogen receptor beta [2]) [%] | Efficacy (Estrogen receptor beta [3]) [%] | Efficacy [4] [%] | EC50 (Estrogen receptor beta [5]) [µM] | Ki (Estrogen receptor [6]) [µM] | IC50 (Estrogen receptor [7]) [µM] | Ki (Estrogen receptor beta [8]) [µM] | IC50 (Histone deacetylase 1; read-out: IC50) [µM] | IC50 ([9]; read-out: IC50) [µM] | IC50 (Histone deacetylase 1) | IC50 [9] | IC50 (Vero) [µM]
O=C(O)CCCCCCC(=O)Nc1cccc(OS(=O)(=O)C2CC3OC2C(c2ccc(O)cc2)=C3c2ccc(O)cc2)c1 (stereo not given) | 122 | > 100 | > 100 | 102 | 47 | 51 | 2.1 | – | – | – | – | – | – | – | > 100
O=C(O)CCCCCCC(=O)Nc1ccc(C2=C(c3ccc(O)cc3)C3CC(S(=O)(=O)Oc4ccccc4O)C2O3)cc1 (racemic) | 24 | 27.9 | 27.7 | 87 | 37 | 12 | – | – | 0.14 | – | – | – | – | – | > 100
Cc1cccc(OS(=O)(=O)C2CC3OC2C(c2ccc(NC(=O)CCCCCCC(=O)O)cc2)=C3c2ccc(O)cc2)c1 (racemic) | 43 | 3.8 | 52.4 | 87 | -11 | -28 | – | – | – | – | 2.98 | – | – | Not Active | –
Cc1ccc(OS(=O)(=O)C2CC3OC2C(c2ccc(NC(=O)CCCCCCC(=O)O)cc2)=C3c2ccc(O)cc2)cc1 (racemic) | 36 | 60.5 | 80.8 | 111 | 8 | -6 | 0.52 | – | 1.08 | 0.0873 | – | – | – | – | > 100
O=C(O)CCCCCCC(=O)Nc1ccc(C2=C(c3ccc(O)cc3)C3CC(S(=O)(=O)Oc4ccccc4)C2O3)cc1 (racemic) | 36 | 66.4 | > 100 | 97 | 36 | -13 | 0.93 | 0.112 | 1.21 | 0.654 | – | – | – | – | > 100
Cc1ccc(OS(=O)(=O)C2CC3OC2C(c2ccc(NC(=O)CCCCCCC(=O)NO)cc2)=C3c2ccc(O)cc2)cc1 (racemic) | 116 | 40.4 | 42.9 | 95 | 52 | -28 | 0.038 | > 5 | – | > 5 | – | – | – | – | > 100
O=S(=O)(Oc1ccccc1)[C@H]1C[C@H]2O[C@@H]1C(c1ccc(O)cc1)=C2c1ccc(O)cc1 (relative stereo) | – | 20.9 | > 100 | – | – | – | – | – | – | – | – | – | Not Active | Not Active | > 100
O=C(O)CCCCCCC(=O)Nc1ccc(C2=C(c3ccc(O)cc3)C3CC(S(=O)(=O)Oc4ccc(C(F)(F)F)cc4)C2O3)cc1 (racemic) | 10 | 24 | 77 | 136 | -12 | -51 | – | – | 0.79 | – | – | 0.648 | Not Active | – | > 100
COc1ccc(OS(=O)(=O)C2CC3OC2C(c2ccc(NC(=O)CCCCCCC(=O)O)cc2)=C3c2ccc(O)cc2)cc1 (racemic) | 40 | 15.3 | 38.6 | 137 | 5 | 27 | – | – | 116 | – | – | 4.17 | Not Active | – | > 100
O=C(O)CCCCCCC(=O)Nc1ccc(C2=C(c3ccc(O)cc3)C3CC(S(=O)(=O)Oc4ccccc4C(F)(F)F)C2O3)cc1 (racemic) | 37 | 26.1 | > 100 | 102 | 10 | 9 | – | 3.87 | 0.64 | – | – | – | – | – | > 100

Continued, in another order:

Efficacy [1] [%] | IC50 (MCF7) [µM] | IC50 (DU-145) [µM] | Efficacy (Estrogen receptor beta [2]) [%] | Efficacy (Estrogen receptor beta [3]) [%] | Efficacy [4] [%] | EC50 (Estrogen receptor beta [5]) [µM] | Ki (Estrogen receptor [6]) [µM] | IC50 (Estrogen receptor [7]) [µM] | Ki (Estrogen receptor beta [8]) [µM] | IC50 (Histone deacetylase 1; read-out: IC50) [µM] | IC50 ([9]; read-out: IC50) [µM] | IC50 (Histone deacetylase 1) | IC50 [9] | SMILES | IC50 (Vero) [µM]
77 | 30.1 | 37.7 | 92 | 38 | 20 | 0.002 | > 5 | – | – | – | – | – | – | O=C(CCCCCCC(=O)Nc1ccc(C2=C(c3ccc(O)cc3)C3CC(S(=O)(=O)Oc4ccccc4)C2O3)cc1)NO (racemic) | > 100
126 | 24.1 | 30.7 | 94 | 27 | -20 | 0.203 | > 5 | – | 2.12 | – | – | – | – | Cc1ccccc1OS(=O)(=O)C1CC2OC1C(c1ccc(NC(=O)CCCCCCC(=O)NO)cc1)=C2c1ccc(O)cc1 (racemic) | > 100
164 | 25.8 | 44.7 | 74 | 53 | 9 | 0.023 | > 5 | – | – | – | – | – | – | COc1ccccc1OS(=O)(=O)C1CC2OC1C(c1ccc(NC(=O)CCCCCCC(=O)NO)cc1)=C2c1ccc(O)cc1 (racemic) | > 100
45 | 18.9 | 58.3 | 94 | 19 | -21 | 0.53 | – | 0.92 | – | 0.282 | 8.11 | – | – | O=C(O)CCCCCCC(=O)Nc1ccc(C2=C(c3ccc(O)cc3)C3CC(S(=O)(=O)Oc4ccc5ccccc5c4)C2O3)cc1 (stereo not given) | > 100
14 | 4.7 | 48.6 | 15 | -13 | 5 | – | – | – | – | – | – | Not Active | Not Active | O=C(O)CCCCCCC(=O)Nc1ccc(C2=C(c3ccc(O)cc3)C3CC(S(=O)(=O)Oc4cccc5ccccc45)C2O3)cc1 (stereo not given) | –
88 | 13.4 | 8.57 | 94 | 36 | -22 | – | > 5 | – | – | – | 0.03 | Not Active | – | O=C(CCCCCCC(=O)Nc1ccc(C2=C(c3ccc(O)cc3)C3CC(S(=O)(=O)Oc4cccc5ccccc45)C2O3)cc1)NO (racemic) | > 100
135 | 23.4 | 47.3 | 86 | 49 | – | 0.002 | > 5 | – | 3.4 | – | – | – | – | O=C(CCCCCCC(=O)Nc1ccc(C2=C(c3ccc(O)cc3)C3CC(S(=O)(=O)Oc4ccc(F)cc4)C2O3)cc1)NO (racemic) | > 100
